The source of these data is patent US7727980B2, “Tricyclic androgen receptor modulator compounds and methods” (priority 2001, dated 2010).

In general, Ki refers to the dissociation constant of the complex between target and ligand, obtained from inhibition or displacement.

Like-named read-outs stand apart in the source and are kept apart here. Some results are limits rather than exact numbers.

Test [1] deals with T1, human AR (Homo sapiens, UniProt P10275).
T1 sequence (P10275 1-920): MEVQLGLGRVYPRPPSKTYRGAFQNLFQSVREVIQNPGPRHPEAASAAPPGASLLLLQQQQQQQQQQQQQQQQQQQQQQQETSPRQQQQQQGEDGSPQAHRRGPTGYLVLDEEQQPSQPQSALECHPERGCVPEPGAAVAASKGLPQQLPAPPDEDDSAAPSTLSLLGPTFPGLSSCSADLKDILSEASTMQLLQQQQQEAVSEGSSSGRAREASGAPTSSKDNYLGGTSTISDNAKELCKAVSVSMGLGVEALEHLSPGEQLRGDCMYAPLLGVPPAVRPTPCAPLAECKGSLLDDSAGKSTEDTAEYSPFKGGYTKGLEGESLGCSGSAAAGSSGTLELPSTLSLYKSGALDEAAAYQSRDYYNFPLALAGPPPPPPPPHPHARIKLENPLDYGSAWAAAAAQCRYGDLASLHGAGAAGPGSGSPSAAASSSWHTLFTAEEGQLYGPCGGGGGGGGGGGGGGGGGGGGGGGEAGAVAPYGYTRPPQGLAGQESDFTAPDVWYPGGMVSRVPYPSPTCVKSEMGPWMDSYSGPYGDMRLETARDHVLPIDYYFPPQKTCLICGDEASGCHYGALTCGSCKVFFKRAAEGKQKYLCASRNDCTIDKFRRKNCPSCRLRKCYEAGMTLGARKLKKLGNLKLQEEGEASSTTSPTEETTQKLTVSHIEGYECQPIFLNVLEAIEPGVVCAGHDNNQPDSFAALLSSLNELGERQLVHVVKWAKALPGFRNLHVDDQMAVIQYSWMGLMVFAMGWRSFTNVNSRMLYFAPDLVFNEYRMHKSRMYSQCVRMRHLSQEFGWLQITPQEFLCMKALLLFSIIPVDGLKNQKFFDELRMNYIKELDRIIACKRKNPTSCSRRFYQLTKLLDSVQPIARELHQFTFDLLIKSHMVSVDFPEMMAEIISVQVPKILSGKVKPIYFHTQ
As to the kind of experiment: Co-transfection assay, AR antagonist activity in presence of DHT, CV-1 cells. Type of test: cell-based. Also noted: expressed in transfected cells; host or cells: CV-1 cells (African green monkey kidney fibroblasts), transient transfection with pRShAR. To be noted: CV-1 cells; for IC50: antagonist potency or IC50, DHT at its EC50 concentration; for AR Antagonist CV-1 Cells Efficacy (%): percent maximal inhibition, DHT at its EC50 concentration.

For test [2], the target named is T1, human AR. Description: Co-transfection assay, AR agonist activity, CV-1 cells. Type of test: cell-based. The arrangement: expressed in transfected cells; host or cells: CV-1 cells (African green monkey kidney fibroblasts), transient transfection with pRShAR. To be noted: for AR Agonist CV-1 Cells Efficacy (%): percent maximal response relative to reference agonist DHT.

Test [3] has as its target T1, human AR. As to the kind of experiment: AR whole cell competitive binding assay (3H-DHT), transfected COS-1 cells. Also noted: expressed in transfected cells; transient transfection with pRShAR. To be noted: COS-1 cells, 1 nM 3H-DHT, Cheng-Prusoff from IC50.
Setting [4] is: AR Antagonist CV-1 Cells Potency (nM).
The mark [5] stands for this setting: AR Agonist CV-1 Cells Potency (nM), agonist potency or EC50.

`CCCN1c2ccc3[nH]c(=O)cc(C(F)(F)F)c3c2CCC1(C)C` [Compound 109, 5,6,7,8-Tetrahydro-7,7-dimethyl-4-trifluoromethyl-8-propylpyridino[3,2-f]quinolin-2(1H)-one]: the IC50 on human AR [1] (setting [4]) was more than 10000 nM. In addition, the “AR Antagonist CV-1 Cells Efficacy (%)” value on human AR [1] is “na (na = not active (i.e. efficacy of <20 and potency of >10,000))”. For the same compound, the EC50 on human AR [2] (setting [5]) was determined as 13 nM. Besides, at human AR [2], the “AR Agonist CV-1 Cells Efficacy (%)” value was 97%. Also, at human AR [3] (AR Binding Ki (nM)), the affinity, expressed as Ki, was 1.2 nM.

With `CC1(C)CCc2c(ccc3[nH]c(=O)cc(C(F)(F)F)c23)N1CC(F)(F)F` [Compound 110, 8-(2,2,2-Trifluoroethyl)-5,6,7,8-tetrahydro-7,7-dimethyl-4-trifluoromethyl-pyridino[3,2-f]quinolin-2(1H)-one], the IC50 on human AR [1] (setting [4]) was more than 10000 nM. The “AR Antagonist CV-1 Cells Efficacy (%)” value at human AR [1] is “na (na = not active (i.e. efficacy of <20 and potency of >10,000))”. Further, at human AR [2] (setting [5]), the EC50 was determined as 21 nM. In addition, the “AR Agonist CV-1 Cells Efficacy (%)” value on human AR [2] is 106%. At human AR [3] (AR Binding Ki (nM)), the affinity, expressed as Ki, was 21 nM.

For `O=c1cc(C(F)(F)F)c2c(ccc3c2c2ccccc2n3CC(F)(F)F)[nH]1` [Compound 158, 9-(2,2,2-Trifluoroethyl)-4-trifluoromethyl-9H-benzo[g]pyrrolo[3,2f]quinolin-2(1H)-one], on human AR [1] (setting [4]), the IC50 was more than 10000 nM. Moreover, on human AR [1], the “AR Antagonist CV-1 Cells Efficacy (%)” value is “na (na = not active (i.e. efficacy of <20 and potency of >10,000))”. The EC50 on human AR [2] (setting [5]) was determined as 7.9 nM. Moreover, the “AR Agonist CV-1 Cells Efficacy (%)” value on human AR [2] worked out at 59%. In addition, on human AR [3] (AR Binding Ki (nM)), the Ki was 7.1 nM.

As for `O=c1cc(C(F)(F)F)c2cc3c(cc2[nH]1)c1c(n3CC(F)(F)F)CCC1` [Compound 159, 6-(2,2,2-Trifluoroethyl)-4-trifluoromethyl-6,7,8,9-tetrahydrocyclopentano[i]pyrrolo[2,3-g]quinolin-2(1H)-one], the IC50 at human AR [1] (setting [4]) worked out at 15 nM. Also, the “AR Antagonist CV-1 Cells Efficacy (%)” value on human AR [1] is on record as 66%. For the same compound, the EC50 at human AR [2] (setting [5]) is more than 10000 nM. Moreover, the “AR Agonist CV-1 Cells Efficacy (%)” value at human AR [2] is “na (na = not active (i.e. efficacy of <20 and potency of >10,000))”. The compound also had a Ki at human AR [3] (AR Binding Ki (nM)) of 989 nM.

Take `C=CCc1c(C)[nH]c2c1ccc1[nH]c(=O)cc(C(F)(F)F)c12` [Compound 173, 7-Allyl-6-methyl-4-trifluoromethyl-5H-pyrrolo[2,3-f]quinolin-2(1H)-one]: the IC50 at human AR [1] (setting [4]) was determined as 1 nM. Moreover, the “AR Antagonist CV-1 Cells Efficacy (%)” value at human AR [1] came to 56%. This compound also displayed an EC50 on human AR [2] (setting [5]) of 138 nM. For the same compound, the “AR Agonist CV-1 Cells Efficacy (%)” value at human AR [2] turned out to be 41%. Further, the Ki at human AR [3] (AR Binding Ki (nM)) worked out at 80 nM.

As to `CCc1[nH]c2c(ccc3[nH]c(=O)cc(C(F)(F)F)c32)c1C` [Compound 175, 6-Ethyl-7-methyl-4-trifluoromethyl-5H-pyrrolo[2,3-f]quinolin-2(1H)-one], the IC50 at human AR [1] (setting [4]) is 11 nM. Moreover, the “AR Antagonist CV-1 Cells Efficacy (%)” value on human AR [1] is listed as 78%. On human AR [2] (setting [5]), this compound came in with an EC50 of more than 10000 nM. In addition, on human AR [2], the “AR Agonist CV-1 Cells Efficacy (%)” value is “na (na = not active (i.e. efficacy of <20 and potency of >10,000))”. In addition, the inhibition constant (Ki) on human AR [3] (AR Binding Ki (nM)) came out at 239 nM.

Regarding `Cc1[nH]c2c(ccc3[nH]c(=O)cc(C(F)(F)F)c32)c1CCO` [Compound 177, 7-(2-Hydroxyethyl)-6-methyl-4-trifluoromethyl-5H-pyrrolo[2,3-f]quinolin-2(1H)-one], the IC50 on human AR [1] (setting [4]) was 790 nM. Further, the “AR Antagonist CV-1 Cells Efficacy (%)” value on human AR [1] came out at 98%. On human AR [2] (setting [5]), this compound had an EC50 of more than 10000 nM. The “AR Agonist CV-1 Cells Efficacy (%)” value at human AR [2] was “na (na = not active (i.e. efficacy of <20 and potency of >10,000))”. This compound came in with a Ki on human AR [3] (AR Binding Ki (nM)) of 31 nM.

Regarding `CC1CCc2cc3[nH]c(=O)cc(C(F)(F)F)c3cc2N1CC1CC1` (stereo not shown) [Compound 195, 4-Trifluoromethyl-7-methyl-6-cyclopropylmethyl-6,7,8,9-tetrahydropyrido[2,3-g]quinolin-2(1H)-one], on human AR [1] (setting [4]), the IC50 was more than 10000 nM. Further, the “AR Antagonist CV-1 Cells Efficacy (%)” value at human AR [1] was “na (na = not active (i.e. efficacy of <20 and potency of >10,000))”. The “AR Agonist CV-1 Cells Efficacy (%)” value at human AR [2] was 78%. In addition, the affinity on human AR [3] (AR Binding Ki (nM)), expressed as Ki, was 20 nM.

`CC1CCc2cc3[nH]c(=O)cc(C(F)(F)F)c3cc2N1CC(F)(F)F` (stereo not shown) [Compound 197, 4-Trifluoromethyl-7-methyl-6-(2,2,2-trifluoroethyl)-6,7,8,9-tetrahydropyrido[2,3-g]quinolin-2(1H)-one]: the IC50 on human AR [1] (setting [4]) is more than 10000 nM. Moreover, on human AR [1], the “AR Antagonist CV-1 Cells Efficacy (%)” value is “na (na = not active (i.e. efficacy of <20 and potency of >10,000))”. For the same compound, the EC50 at human AR [2] (setting [5]) was 12 nM. The “AR Agonist CV-1 Cells Efficacy (%)” value at human AR [2] stood at 66%. The affinity at human AR [3] (AR Binding Ki (nM)) corresponds to a Ki of 79 nM.

With `O=c1cc(C(F)(F)F)c2cc3c(cc2[nH]1)CCCN3CC(F)(F)F` [Compound 198, 4-Trifluoromethyl-6-(2,2,2-trifluoroethyl)-6,7,8,9-tetrahydropyrido[2,3-g]quinolin-2(1H)-one], the IC50 at human AR [1] (setting [4]) was more than 10000 nM. In addition, the “AR Antagonist CV-1 Cells Efficacy (%)” value on human AR [1] was “na (na = not active (i.e. efficacy of <20 and potency of >10,000))”. The compound further gave an EC50 on human AR [2] (setting [5]) of 1.7 nM. For the same compound, the “AR Agonist CV-1 Cells Efficacy (%)” value on human AR [2] came to 47%. In addition, at human AR [3] (AR Binding Ki (nM)), the Ki was determined as 58 nM.

With `CCCN1CCCc2cc3[nH]c(=O)cc(C(F)(F)F)c3cc21` [Compound 199, 4-Trifluoromethyl-6-propyl-6,7,8,9-tetrahydropyrido[2,3-g]quinolin-2(1H)-one], the IC50 at human AR [1] (setting [4]) is more than 10000 nM. For the same compound, the “AR Antagonist CV-1 Cells Efficacy (%)” value at human AR [1] is “na (na = not active (i.e. efficacy of <20 and potency of >10,000))”. Further, the EC50 at human AR [2] (setting [5]) amounted to 42 nM. The “AR Agonist CV-1 Cells Efficacy (%)” value on human AR [2] stood at 70%. On human AR [3] (AR Binding Ki (nM)), this compound had a Ki of 236 nM.

For the compound `O=c1cc(C(F)(F)F)c2cc3c(cc2[nH]1)CCCN3CC1CC1` [Compound 201, 4-Trifluoromethyl-6-cyclopropylmethyl-6,7,8,9-tetrahydropyrido[2,3-g]quinolin-2(1H)-one], the IC50 at human AR [1] (setting [4]) was more than 10000 nM. The “AR Antagonist CV-1 Cells Efficacy (%)” value at human AR [1] is “na (na = not active (i.e. efficacy of <20 and potency of >10,000))”. Further, the “AR Agonist CV-1 Cells Efficacy (%)” value at human AR [2] amounted to 76%. Also, the affinity on human AR [3] (AR Binding Ki (nM)), expressed as Ki, was 10 nM.

Turning to `CC1=CC(C)(C)Oc2cc3oc(=O)cc(C(F)(F)F)c3cc21` [Compound 223, 6,8,8-Trimethyl-4-trifluoromethyl-8H-pyrano[3,2-g]coumarin], the IC50 at human AR [1] (setting [4]) was 41 nM. In addition, the “AR Antagonist CV-1 Cells Efficacy (%)” value on human AR [1] came out at 66%. This compound also had an EC50 on human AR [2] (setting [5]) of more than 10000 nM. For the same compound, the “AR Agonist CV-1 Cells Efficacy (%)” value on human AR [2] is “na (na = not active (i.e. efficacy of <20 and potency of >10,000))”. The compound also came in with a Ki on human AR [3] (AR Binding Ki (nM)) of 37 nM.

For `CCC1=CC(C)(C)Oc2cc3oc(=O)cc(C(F)(F)F)c3cc21` [Compound 227, 6-Ethyl-8,8-dimethyl-4-trifluoromethyl-8H-pyrano[3,2-g]coumarin], on human AR [1] (setting [4]), the IC50 was determined as 25 nM. Moreover, the “AR Antagonist CV-1 Cells Efficacy (%)” value at human AR [1] turned out to be 75%. The compound further gave an EC50 on human AR [2] (setting [5]) of more than 10000 nM. Moreover, the “AR Agonist CV-1 Cells Efficacy (%)” value at human AR [2] is “na (na = not active (i.e. efficacy of <20 and potency of >10,000))”. This compound came in with a Ki at human AR [3] (AR Binding Ki (nM)) of 33 nM.

Consider “(+)-6,7-Dihydro-6-ethyl-4-trifluoromethyl-8H-pyrano[3,2-g]quinolin-2(1H)-one [Compound 218]”, for which, at human AR [1] (read-out: AR Antagonist CV-1 Cells Potency), the IC50 is more than 10000 nM. Further, the “AR Antagonist CV-1 Cells Efficacy (%)” value at human AR [1] is “na (na = not active (i.e. efficacy of <20 and potency of >10,000))”. In addition, on human AR [2] (agonist potency or EC50, read-out: AR Agonist CV-1 Cells Potency), the EC50 came out at 10 nM. Moreover, the “AR Agonist CV-1 Cells Efficacy (%)” value on human AR [2] was found to be 82%. Further, the Ki at human AR [3] (read-out: AR Binding Ki) is 4.1 nM.
